Patent US20160143884A1, “USE OF TETRAHYDROINDAZOLYLBENZAMIDE AND TETRAHYDROINDOLYLBENZAMIDE DERIVATIVES FOR THE TREATMENT OF HUMAN IMMUNODEFICIENCY VIRUS (HIV) AND ACQUIRED IMMUNE DEFICIENCY SYNDROME (AIDS)” (Esanex, Inc., priority 2014, published 2016)

How the values were obtained:
[1] = Toxicity by counting live cells (trypan blue exclusion); format: cell-based; conditions: live cell count, read-out: Cytotoxicity TC50
Method: (§1) Several additional compounds were also tested for HIV virus inhibition, and the results are show in Table 5. P24 concentration in the supernatant was measured using a commercial ELISA assay. Toxicity was assessed by counting live cells (trypan blue exclusion)

HIV-1 = experiment: HIV virus inhibition, p24 in supernatant by ELISA; format: cell-based; conditions: for EC50: Human immunodeficiency virus 1, HIV-1, p24 ELISA of supernatant
Method: as §1

HIV reactivation = conditions: Anderson et al., PNAS 2014; cited from earlier work
integration = conditions: Vozzolo et al., J. Biol. Chem. 2010; cited from earlier work
Hepatitis B Virus (HBV) = experiment: Anti-HBV assay, real-time qPCR of extracellular HBV DNA in HepG2 2.2.15; format: cell-based
Method: The anti-HBV assay employed real-time qPCR (TaqMan) to directly measure extracellular HBV DNA copy number. HepG2-2.2.15 cells were plated in 96-well microtiter plates. Only the interior wells were utilized to reduce “edge effects” observed during cell culture; the exterior wells were filled with complete medium to help minimize sample evaporation. After 16-24 hours the confluent monolayer of HepG2-2.2.15 cells was washed and the medium replaced with complete medium containing various concentrations of a test compound in triplicate. 3TC was used as positive control, while media alone was added to cells as negative control (virus control, VC). Three days later the culture medium was replaced with fresh medium containing the appropriately diluted drug. Six days following the initial administration of the test compound, the cell culture supernatant collected, treated with pronase and then used in a real-time quantitative TaqMan qPCR assay. The PCR-amplified HBV DNA was detected in real-time by monitoring increases in fluorescence signals that result from the exonucleolytic degradation of a quenched fluorescent probe molecule that hybridizes to the amplified HBV DNA. For each PCR amplification, a standard curve was simultaneously generated using dilutions of purified HBV DNA. Antiviral activity was calculated from the reduction in HBV DNA levels (IC50). CellTiter 96® AQueous One Solution Cell Proliferation Assay kit (Promega) was employed to measure cell viability which was used to calculate cytotoxicity (TC50). The therapeutic index (TI) was calculated as TC50/IC50.

[2] = Cell viability (CellTiter 96 AQueous One) in HepG2 2.2.15; format: cell-based; conditions: human, HepG2-2.2.15 cells, read-out: Cytotoxicity TC50
Method: The anti-HBV assay employed real-time qPCR (TaqMan) to directly measure extracellular HBV DNA copy number. HepG2-2.2.15 cells were plated in 96-well microtiter plates. Only the interior wells were utilized to reduce “edge effects” observed during cell culture; the exterior wells were filled with complete medium to help minimize sample evaporation. After 16-24 hours the confluent monolayer of HepG2-2.2.15 cells was washed and the medium replaced with complete medium containing various concentrations of a test compound in triplicate. 3TC was used as positive control, while media alone was added to cells as negative control (virus control, VC). Three days later the culture medium was replaced with fresh medium containing the appropriately diluted drug. Six days following the initial administration of the test compound, the cell culture supernatant collected, treated with pronase and then used in a real-time quantitative TaqMan qPCR assay. The PCR-amplified HBV DNA was detected in real-time by monitoring increases in fluorescence signals that result from the exonucleolytic degradation of a quenched fluorescent probe molecule that hybridizes to the amplified HBV DNA. […] Antiviral activity was calculated from the reduction in HBV DNA levels (IC50). […] The therapeutic index (TI) was calculated as TC50/IC50.

Compound	CC50 [1] [nM]	Selectivity Index TI (TC50/EC50) (HIV-1)	EC50 (HIV-1) [nM]	further results
Cc1nn(-c2ccc(C(N)=O)c(NC3CCC(O)CC3)c2)c2c1C(=O)CC(C)(C)C2 (stereo not drawn) [Compound 1, 2-((4-hydroxycyclohexyl)amino)-4-(3,6,6-trimethyl-4-oxo-4,5,6,7-tetrahydro-1H-indazol-1-yl)benzamide]	436	54	8.1	–
CCNC(=O)c1noc(-c2cc(C(C)C)c(O)cc2O)c1-c1ccc(CN2CCOCC2)cc1 [AUY922]	–	–	–	Suppression of HIV reactivation (HIV reactivation): almost completely suppressed
Cc1nn(-c2ccc(C(N)=O)c(NCCOCCOCCN)c2)c2c1C(=O)CC(C)(C)C2 [Compound 5, 2-((2-(2-(2-aminoethoxy)ethoxy)ethyl)amino)-4-(3,6,6-trimethyl-4-oxo-4,5,6,7-tetrahydro-1H-indazol-1-yl)benzamide]	–	–	2160	–
CCOCCCNc1cc(-n2nc(C)c3c2CC(C)(C)CC3=O)ccc1C(N)=O [Compound 8, 2-((3-ethoxypropyl)amino)-4-(3,6,6-trimethyl-4-oxo-4,5,6,7-tetrahydro-1H-indazol-1-yl)benzamide]	–	–	42	–
C=CCNC1=C2C[C@@H](C)C[C@H](OC)[C@H](O)[C@@H](C)/C=C(\C)[C@H](OC(N)=O)[C@@H](OC)/C=C\C=C(/C)C(=O)NC(=CC1=O)C2=O [17-allylamino-17-demethoxy-geldanamycin]	–	–	–	Effect on integration (integration): no effect
CCOCCNc1cc(-n2nc(C)c3c2CC(C)(C)CC3=O)ccc1C(N)=O [Compound 4, 2-((2-ethoxyethyl)amino)-4-(3,6,6-trimethyl-4-oxo-4,5,6,7-tetrahydro-1H-indazol-1-yl)benzamide]	2170	24	89	–
Nc1ccn([C@@H]2CS[C@H](CO)O2)c(=O)n1 [Compound 3TC, 2′,3′-dideoxy-3′-thiacytidine, reference compound]	–	–	–	Selectivity Index TI (TC50/IC50) (Hepatitis B Virus (HBV); HBV in HepG2 2.2.15): >14.0; IC50 (Hepatitis B Virus (HBV); Hepatitis B virus, 144 h, HBV in HepG2 2.2.15, six days, read-out: Antiviral Activity IC50 (reduction in HBV DNA levels)): 35.6 nM; CC50 at 6 days [2]: > 500 nM
COCCNc1cc(-n2nc(C)c3c2CC(C)(C)CC3=O)ccc1C(N)=O [Compound 3, 2-((2-methoxyethyl)amino)-4-(3,6,6-trimethyl-4-oxo-4,5,6,7-tetrahydro-1H-indazol-1-yl)benzamide]	1160	901	1.3	–
Cc1nn(-c2ccc(C(N)=O)c(NCCCO)c2)c2c1C(=O)CC(C)(C)C2 [Compound 6, 2-((3-hydroxypropyl)amino)-4-(3,6,6-trimethyl-4-oxo-4,5,6,7-tetrahydro-1H-indazol-1-yl)benzamide]	–	–	32	–
COCCCNc1cc(-n2nc(C)c3c2CC(C)(C)CC3=O)ccc1C(N)=O [Compound 7, 2-((3-methoxypropyl)amino)-4-(3,6,6-trimethyl-4-oxo-4,5,6,7-tetrahydro-1H-indazol-1-yl)benzamide]	–	–	81	–
Cc1nn(-c2ccc(C(N)=O)c(NCCO)c2)c2c1C(=O)CC(C)(C)C2 [Compound 2, 2-((2-hydroxyethyl)amino)-4-(3,6,6-trimethyl-4-oxo-4,5,6,7-tetrahydro-1H-indazol-1-yl)benzamide]	617	12	52	–
